The source of these data is patent US10842151B2, “Small molecule compound for enhancing plant stress resistance” (SHANGHAI INSTITUTES FOR BIOLOGICAL SCIENCES, CHINESE …, priority 2015, dated 2020).

Data set [1] deals with Arabidopsis ABA synthesis defective mutant aba2-1. Type of data set: in vivo, Arabidopsis thaliana. The conditions noted are these: 5 μM sprayed; after 4 days; vs DMSO.
Data set [2] has as its target T1, PYL2 + HAB1 (Arabidopsis thaliana, UniProt O80992).
T1 construct: made in house; host or cells: E. coli BL21 (DE3)
T1 sequence (O80992 14-188 limits assumed): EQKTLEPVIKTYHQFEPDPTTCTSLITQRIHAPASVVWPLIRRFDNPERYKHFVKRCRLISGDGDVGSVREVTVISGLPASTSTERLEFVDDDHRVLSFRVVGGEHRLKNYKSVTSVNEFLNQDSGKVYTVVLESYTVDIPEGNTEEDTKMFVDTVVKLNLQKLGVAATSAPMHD
T1 sequence (Q9CAJ0 172-511 partner limits assumed): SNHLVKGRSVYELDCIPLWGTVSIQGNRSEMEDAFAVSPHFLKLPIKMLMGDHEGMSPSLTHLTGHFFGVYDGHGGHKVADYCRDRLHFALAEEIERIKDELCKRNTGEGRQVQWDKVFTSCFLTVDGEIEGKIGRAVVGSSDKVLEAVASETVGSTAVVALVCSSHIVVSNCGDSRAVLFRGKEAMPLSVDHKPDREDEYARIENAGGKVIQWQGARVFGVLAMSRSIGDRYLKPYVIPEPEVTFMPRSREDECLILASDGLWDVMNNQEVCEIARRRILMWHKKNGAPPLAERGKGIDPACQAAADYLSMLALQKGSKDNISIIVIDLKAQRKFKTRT
As to the kind of experiment: AlphaScreen experiment, PYL2 + HAB1. The conditions noted are these: number in brackets; read-out: Half maximum effect concentration EC50 (PYL2 + HAB1). Type of data set: binding. How it is done:
(§1) After incubating for 1.5 hours at room temperature in the dark, it was placed into an Envision Plate Reader (available from Perkin Elmer) under the programmed AlphaScreen procedure for readings.
(Alpha assays give light when donor and acceptor beads are brought close together.)

The test system of data set [3] is soybean GmPYL3 and GmPYL6 + Arabidopsis AtHAB1. Nature of the data set: AlphaScreen experiment with soybean GmPYL receptors. Type of data set: binding. To be noted: FIG. 9. On the procedure: as §1
The subject of data set [4] is Chinese hamster lung cell (CHL). As to the kind of experiment: In vitro micronucleus experiment. Type of data set: cell-based. The conditions noted are these: -S9; 24 hours. On the procedure: The test substance used in the experiment was AMX compound 1127.
Firstly, CHL cells used in in vitro micronucleus test were tested in IC50 determination experiment. According to IC50 determination results, in vitro micronucleus test dosage was set. 4 doses of 1 μg/ml, 20 μg/ml, 30 μg/ml and 40 μg/ml were set in total, while a negative control and a positive control were also set. The CHL cells were treated for 24 hours under the condition of −S9 and sections were prepared.
The numbers of monocytes, binucleate cells and multinucleated cells in 500 cells per dose were counted and the cytokinesis-block proliferation index (CBPI) and cytotoxicity at each dose were calculated.

Data set [5] has as its system soybean. As to the kind of experiment: Soil drought experiment, soybean. Type of data set: in vivo. To be noted: 50 μM. How it is done: Only one plant was contained in each pot. All soybean plants were long-day cultured at 26° C. Watering was stopped after the plant had three leaves in each of three groups of leaves and the plants with consistent growth were selected for drought treatment. As for corn, watering was stopped during the small trumpet period for drought treatment. […] After a week, the watering was resumed. Soybeans and cotton used in leaf transpiration experiments for compound 0720B were also used for soil drought experiments. Each pot contained only one plant and was filled with the same weight of soil to reduce experimental errors. All of the soybean plants were grown at 26° C. for long-day culture. 16 days after seeding, watering was stopped and the plants with consistent growth were selected for drought treatment. […] Cotton drought experiments were similar to that of the soybean. 23 days after seeding, the watering was stopped, and the plants with consistent growth were selected for drought treatment. […] After 10 days of drought, the photos were taken.

For data set [6], the target named is T2, PYL7 + HAB1 (Arabidopsis thaliana, UniProt Q1ECF1).
T2 construct: made in house; host or cells: E. coli BL21 (DE3)
T2 sequence (Q1ECF1 1-211): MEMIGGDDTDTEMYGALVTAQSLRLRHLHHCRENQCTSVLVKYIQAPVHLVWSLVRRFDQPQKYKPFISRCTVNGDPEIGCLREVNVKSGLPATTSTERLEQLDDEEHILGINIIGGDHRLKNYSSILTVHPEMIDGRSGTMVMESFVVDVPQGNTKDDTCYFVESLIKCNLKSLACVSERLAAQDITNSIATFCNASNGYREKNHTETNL
T2 sequence (Q9CAJ0 172-511 partner limits assumed): T1 sequence (Q9CAJ0 172-511 partner limits assumed)
Nature of the data set: AlphaScreen experiment, PYL7 + HAB1. It counts as binding. The conditions noted are these: number in brackets; read-out: Half maximum effect concentration EC50 (PYL7 + HAB1). On the procedure: as §1

The subject of data set [7] is pyr1;pyl1;pyl4 triple mutant seeds. As to the kind of experiment: Seed germination, PYR/PYL triple mutant. The conditions noted are these: 1 μM; six days after seeding. Type of data set: in vivo, Arabidopsis thaliana. From the text:
(§2) Two lines of plant were sown simultaneously on a single medium of 6 cm diameter, with 15 seeds sown for each line and 4 replicates for each compound. […]

Data set [8] relates to Arabidopsis thaliana Col-0 ecotype seeds. Nature of the data set: Seed germination, Col-0. It counts as in vivo. To be noted: 1 μM.
Description: as §2

Data set [9] relates to Arabidopsis Col-0 ecotype. As to the kind of experiment: Soil drought experiment, Arabidopsis. Type of data set: in vivo, Arabidopsis thaliana. On the procedure:
Seeds of Arabidopsis Col-0 ecotype were sterilized with NaClO and then sown on ½ MS solid medium at 4° C. for 3 days of vernalization. After 6 days of growing, the well-grown seedlings having uniform size were selected and transferred into 8×7×6 cm^3 pots. Each pot was filled with the same weight of soil and the same number of plants (six plants) was planted to reduce experimental error. All the pots were subjected to a short-day culture at 22° C. After two weeks, watering was stopped for drought treatment. […] The position of the flowerpot was changed every day during the process of drought to reduce the error caused by environmental factors. During the whole drought period, the solution was sprayed twice in total and photos were recorded regularly. The watering was resumed in about three weeks.

Consider `CCCN1C(=O)CCc2cc(NS(=O)(=O)Cc3c(F)c(F)c(C)c(F)c3F)ccc21` [Compound 1127], for which the leaf temperature entry in data set [1] was “still higher than that in the control group”. For the same compound, the EC50 in data set [2] was found to be 20 nM; in data set [6], 10 nM. Besides, the “affinities for soybean GmPYL proteins compared with ABA” value in data set [3] was “significantly higher affinities”. The “micronuclei rate in CHL cells” value in data set [4] is “did not induce an increased micronuclei rate”. Also, in [5] (a week of drought, one month after rewatering), the growth entry is “grew significantly better than the plants sprayed with DMSO (control) and sprayed with 50 μM ABA”. In addition, the survival rate entry in data set [5] (after rewatering) is given as “higher than that in the above two groups”. In addition, the “germination of pyr1;pyl1;pyl4 triple mutant seeds” value in [7] is on record as “could not inhibit germination of PYR/PYL triple mutant pyr1;pyl1;pyl4 seeds”. Further, the “inhibition effect on germination of Col-0 ecotype seeds compared with control compound” value in data set [8] was “significantly better inhibition effect”. The “germination of Col-0 ecotype seeds” value in data set [8] (six days after seeding) is “could still inhibit germination of Col-0 ecotype seeds”. Besides, the plant survival entry in data set [9] (5 μM sprayed, 18 days after drought) was “still survived”. In data set [9] (5 μM sprayed, after 20 days of drought), the plant growth result is listed as “still maintained good growth”. In [9] (same concentration, after 2 weeks of drought, FIG. 8c), the “drought resistance compared with compound with fewer halogen atoms (0604c)” value was “stronger drought resistance”.
